According to patent US10077261B2, “Imidazolin-5-one derivative useful as FASN inhibitors for the treatment of cancer” (Janssen Pharmaceutica NV, priority 2012, dated 2018):

Target: T1, hFASN enzyme (full length) (Homo sapiens, UniProt P49327)
T1 construct: 10 μL hFASN enzyme (full length, 300 ng, purified in house); made in house
Assay: Fatty Acid Synthase (FASN) inhibition scintillation proximity assay
Type: biochemical
Conditions: for inhibition at 10 µM: read-out: Human FASN % inhibition @ 10 μM, 10 μM test compound; for IC50: read-out: Human FASN pIC50 (converted)
Protocol: In this assay, inhibition of FASN activity is measured using ^3H-acetyl-CoA and malonyl-CoA as substrates. ^3H-Acetyl CoA is converted to ^3H-palmitate through a series of reactions by the FASN protein, which contains 7 functional domains and carries out 7 enzymatic reactions to ultimately produce ^3H-palmitate. The assay principle is based upon the fact that ^3H-acetyl-CoA is hydrophilic and the end product, ^3H-palmitate is hydrophobic.
10 μL assay buffer (100 mM KH2PO4 pH 7.5, 1 mM DTT) (20 μL in blanks) was added to a 384-well white optiplate plate (Perkin Elmer). 0.9 μL test compound (at concentrations of 30 μM, 10 μM, 3 μM, 1 μM, 0.30 μM, 0.10 μM, 0.03 μM and 0.01 μM)/DMSO and 10 μL hFASN enzyme (full length, 300 ng, purified in house) or 10 μL assay buffer was added to the wells. […] The reaction was stopped by adding 20 μL Streptavidin coupled imaging beads (25 mg/ml). After incubation for 30 minutes at room temperature in the dark, the 384 well plate was centrifuged at 1500 rpm for 3 minutes and was measured after at least 24 hrs by the LEADseeker™, measuring emission using a 610±20 nm pass filter.
where mLC and mHC were the means of the low control wells and high control wells on the plate, after manual exclusion of outliers. A plot of Controlmin versus test compound concentration was fitted to a 4-parameter logistic curve using a non-linear least squares regression method.

T1 sequence (P49327 whole entry): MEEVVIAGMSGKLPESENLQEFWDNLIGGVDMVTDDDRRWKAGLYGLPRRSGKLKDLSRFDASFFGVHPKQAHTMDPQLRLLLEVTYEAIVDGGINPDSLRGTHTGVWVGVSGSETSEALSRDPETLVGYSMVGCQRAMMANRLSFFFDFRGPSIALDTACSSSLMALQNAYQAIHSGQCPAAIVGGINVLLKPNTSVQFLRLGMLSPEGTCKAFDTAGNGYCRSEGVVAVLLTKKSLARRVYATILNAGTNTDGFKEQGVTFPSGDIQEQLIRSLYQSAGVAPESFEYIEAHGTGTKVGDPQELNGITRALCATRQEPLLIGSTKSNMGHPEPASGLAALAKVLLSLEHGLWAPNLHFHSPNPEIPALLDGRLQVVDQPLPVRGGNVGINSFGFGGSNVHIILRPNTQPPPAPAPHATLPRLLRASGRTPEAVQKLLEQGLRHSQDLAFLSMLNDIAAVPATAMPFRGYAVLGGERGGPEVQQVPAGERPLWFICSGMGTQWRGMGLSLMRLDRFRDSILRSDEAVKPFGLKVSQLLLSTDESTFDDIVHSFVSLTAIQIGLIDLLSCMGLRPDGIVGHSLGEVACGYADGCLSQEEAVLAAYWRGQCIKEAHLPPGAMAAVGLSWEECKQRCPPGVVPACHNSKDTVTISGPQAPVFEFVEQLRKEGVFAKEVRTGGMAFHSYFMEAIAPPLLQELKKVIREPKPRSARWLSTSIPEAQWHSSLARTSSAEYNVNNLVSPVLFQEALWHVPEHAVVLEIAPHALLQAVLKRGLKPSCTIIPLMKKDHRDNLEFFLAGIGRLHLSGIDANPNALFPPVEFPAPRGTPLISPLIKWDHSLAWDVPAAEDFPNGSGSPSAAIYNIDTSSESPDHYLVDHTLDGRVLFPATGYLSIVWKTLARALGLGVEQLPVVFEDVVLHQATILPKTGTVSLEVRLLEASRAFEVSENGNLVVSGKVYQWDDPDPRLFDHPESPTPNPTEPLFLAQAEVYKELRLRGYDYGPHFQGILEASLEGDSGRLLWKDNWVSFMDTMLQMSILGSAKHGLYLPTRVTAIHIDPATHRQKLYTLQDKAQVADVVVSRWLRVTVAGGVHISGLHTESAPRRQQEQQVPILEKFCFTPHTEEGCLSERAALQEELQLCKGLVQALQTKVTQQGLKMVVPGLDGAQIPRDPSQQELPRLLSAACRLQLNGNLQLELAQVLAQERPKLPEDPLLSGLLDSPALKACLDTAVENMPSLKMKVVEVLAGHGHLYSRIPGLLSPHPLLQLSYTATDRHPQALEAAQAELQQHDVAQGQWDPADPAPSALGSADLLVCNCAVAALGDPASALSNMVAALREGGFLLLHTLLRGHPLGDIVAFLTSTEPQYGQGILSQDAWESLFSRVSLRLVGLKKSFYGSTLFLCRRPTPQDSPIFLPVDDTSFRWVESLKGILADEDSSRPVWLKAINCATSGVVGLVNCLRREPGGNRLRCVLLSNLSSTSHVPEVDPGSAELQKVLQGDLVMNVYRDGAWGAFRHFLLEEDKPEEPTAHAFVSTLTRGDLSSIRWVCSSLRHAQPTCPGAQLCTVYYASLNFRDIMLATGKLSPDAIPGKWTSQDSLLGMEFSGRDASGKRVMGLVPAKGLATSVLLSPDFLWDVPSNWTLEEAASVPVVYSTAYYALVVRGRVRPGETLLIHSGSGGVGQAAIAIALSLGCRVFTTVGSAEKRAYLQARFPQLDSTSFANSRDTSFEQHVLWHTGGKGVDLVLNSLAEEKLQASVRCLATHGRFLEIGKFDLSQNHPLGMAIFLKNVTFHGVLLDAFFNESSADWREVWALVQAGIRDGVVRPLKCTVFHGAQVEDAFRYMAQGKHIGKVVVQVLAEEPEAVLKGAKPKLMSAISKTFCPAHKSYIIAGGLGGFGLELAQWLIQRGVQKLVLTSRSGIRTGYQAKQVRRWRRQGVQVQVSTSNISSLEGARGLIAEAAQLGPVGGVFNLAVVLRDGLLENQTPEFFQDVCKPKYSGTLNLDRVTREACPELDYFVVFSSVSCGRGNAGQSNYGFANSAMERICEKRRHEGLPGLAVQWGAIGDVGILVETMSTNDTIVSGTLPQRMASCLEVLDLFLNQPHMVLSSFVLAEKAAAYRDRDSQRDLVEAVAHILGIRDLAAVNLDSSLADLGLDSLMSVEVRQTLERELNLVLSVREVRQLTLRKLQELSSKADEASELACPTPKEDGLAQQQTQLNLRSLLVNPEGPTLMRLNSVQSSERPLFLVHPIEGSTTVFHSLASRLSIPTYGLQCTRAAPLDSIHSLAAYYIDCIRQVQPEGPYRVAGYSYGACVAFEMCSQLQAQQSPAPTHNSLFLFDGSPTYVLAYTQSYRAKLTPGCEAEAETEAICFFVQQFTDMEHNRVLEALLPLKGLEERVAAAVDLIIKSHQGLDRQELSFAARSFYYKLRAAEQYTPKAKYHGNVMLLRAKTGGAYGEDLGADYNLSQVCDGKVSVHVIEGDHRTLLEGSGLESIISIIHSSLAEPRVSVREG

| Structure (SMILES) | inhibition at 10 µM | IC50 | Human FASN pIC50 (hFASN enzyme, full length, "~" means standard error of the pIC50 is larger than 0.5) |
| --- | --- | --- | --- |
| N#Cc1cccc(-c2ccc(C3=NC4(CCCC4)C(=O)N3C[C@@H]3CCN(C(=O)C4CC4)C3)cc2)c1 [compound 83, 4′-(3-{[(3R)-1-(Cyclopropylcarbonyl)pyrrolidin-3-yl]methyl}-4-oxo-1,3-diazaspiro[4.4]non-1-en-2-yl)biphenyl-3-carbonitrile] | 65.6% | 4.79 µM |  |
| Cn1ncc2cc(-c3ccc(C4=NC5(CC5)C(=O)N4C[C@@H]4CCN(C(=O)C5CC5)C4)s3)ccc21 [compound 430, 6-{[(3R)-1-(Cyclopropylcarbonyl)pyrrolidin-3-yl]methyl}-5-[5-(1-methyl-1H-indazol-5-yl)thiophen-2-yl]-4,6-diazaspiro[2.4]hept-4-en-7-one] | 52% |  | 5.05 |
| CN(C)CC(=O)N1CCC2(CC1)N=C(c1ccc(-c3ccc4[nH]ccc4c3)cc1)N(C[C@@H]1CCN(C(=O)C3CC3)C1)C2=O [compound 164, 3-{[(3R)-1-(Cyclopropylcarbonyl)pyrrolidin-3-yl]methyl}-8-(N,N-dimethylflycyl)-2-[4-(1H-indol-5-yl)phenyl]-1,3,8-triazaspiro[4.5]dec-1-en-4-one] | 115% | 0.0398 µM |  |
| Cn1ncc2cc(-c3cnc(C4=NC5(CC5)C(=O)N4C[C@@H]4CCN(C(=O)C5CC5)C4)nc3)ccc21 [compound 438, 6-{[(3R)-1-(Cyclopropylcarbonyl)pyrrolidin-3-yl]methyl}-5-[5-(1-methyl-1H-indazol-5-yl)pyrimidin-2-yl]-4,6-diazaspiro[2.4]hept-4-en-7-one] | 65% | 3.31 µM |  |
| O=C(CN1CC[C@@H](CN2C(=O)C3(CCN(Cc4ccccc4)CC3)N=C2c2ccc(-c3ccc4occc4c3)cc2)C1)C1CC1 [compound 96, 2-[4-(1-Benzofuran-5-yl)phenyl]-8-benzyl-3-{[(3R)-1-(2-cyclopropyl-2-oxoethyl)pyrrolidin-3-yl]methyl}-1,3,8-triazaspiro[4.5]dec-1-en-4-one] | 71.2% | 5.01 µM |  |
| Cc1cc2cc(-c3ccc(C4=NC5(CCN(CCO)CC5)C(=O)N4C[C@@H]4CCN(C(=O)C5CC5)C4)cc3)ccc2o1 [compound 173, 3-{[(3R)-1-(Cyclopropylcarbonyl)pyrrolidin-3-yl]methyl}-8-(2-hydroxyethyl)-2-[4-(2-methyl-1-benzofuran-5-yl)phenyl]-1,3,8-triazaspiro[4.5]dec-1-en-4-one] | 97% | 0.38 µM |  |
| COC(=O)N1CC2(C1)N=C(c1ccc(-c3ccc(-c4cnn(C)c4)cc3)cc1)N(C[C@@H]1CCN(C(=O)c3nccs3)C1)C2=O [compound 929, (R)-methyl 6-(4′-(1-methyl-1H-pyrazol-4-yl)-[1,1′-biphenyl]-4-yl)-8-oxo-7-((1-(thiazole-2-carbonyl)pyrrolidin-3-yl)methyl)-2,5,7-triazaspiro[3.4]oct-5-ene-2-carboxylate] | 6% | > 10 µM |  |
| Cn1ncc2cc(-c3ccc(C4=NC5(CCOC5)C(=O)N4CC4CN(C(=O)C5CC5)C4)cc3)ccc21 (stereo not drawn) [compound 722, 3-{[1-(Cyclopropylcarbonyl)azetidin-3-yl]methyl}-2-[4-(1-methyl-1H-indazol-5-yl)phenyl]-7-oxa-1,3-diazaspiro[4.4]non-1-en-4-one] | 56% | 6.61 µM |  |
| CC(C)C(=O)N1CCC2(CC1)N=C(c1ccc(-c3ccc4c(cnn4C)c3)cc1)N(CC1CN(C(=O)C3CC3)C1)C2=O [compound 135, 3-{[1-(Cyclopropylcarbonyl)azetidin-3-yl]methyl}-2-[4-(1-methyl-1H-indazol-5-yl)phenyl]-8-(2-methylpropanoyl)-1,3,8-triazaspiro[4.5]dec-1-en-4-one] | 78.9% | 2.45 µM |  |
| Cn1ncc2cc(-c3ccc(C4=NC5(CCOCC5)C(=O)N4CC4CN(C(=O)c5nccs5)C4)cc3)ccc21 [compound 908, 2-(4-(1-methyl-1H-indazol-5-yl)phenyl)-3-((1-(thiazole-2-carbonyl)azetidin-3-yl)methyl)-8-oxa-1,3-diazaspiro[4.5]dec-1-en-4-one] | 2% | > 10 µM |  |
| O=C(C1CC1)N1CC(CN2C(=O)C3(CC3)N=C2c2ccc(-c3ccc(C4CC4)nc3)cc2)C1 [compound 798, 6-((1-(cyclopropanecarbonyl)azetidin-3-yl)methyl)-5-(4-(6-cyclopropylpyridin-3-yl)phenyl)-4,6-diazaspiro[2.4]hept-4-en-7-one] | 30% | > 10 µM |  |
| Cn1ncc2cc(-c3ccc(C4=NC5(CCOCC5)C(=O)N4C[C@@H]4CCN(C(=O)c5nccs5)C4)cc3)ccc21 [compound 959, (R)-2-(4-(1-methyl-1H-indazol-5-yl)phenyl)-3-((1-(thiazole-2-carbonyl)pyrrolidin-3-yl)methyl)-8-oxa-1,3-diazaspiro[4.5]dec-1-en-4-one] | -7% | > 10 µM |  |
| Cn1ncc2cc(-c3ccc(C4=NC5(CCOCC5)C(=O)N4C[C@@H]4CCN(C(=O)N5CCCC5)C4)cc3)ccc21 [compound 675] | 66% | 2.82 µM |  |
| CN1CCN(c2cc(-c3ccc(C4=NC5(CCCC5)C(=O)N4C[C@@H]4CCN(C(=O)C5CC5)C4)cc3)ccn2)CC1 [compound 829, (R)-3-((1-(cyclopropanecarbonyl)pyrrolidin-3-yl)methyl)-2-(4-(2-(4-methylpiperazin-1-yl)pyridin-4-yl)phenyl)-1,3-diazaspiro[4.4]non-1-en-4-one] | 7% | > 10 µM |  |
| Cn1ncc2ccc(-c3ccc(C4=NC5(CC5)C(=O)N4CC4CCN(C(=O)C5CC5)CC4)cc3)cc21 [compound 24, 6-{[1-(Cyclopropylcarbonyl)piperidin-4-yl]methyl}-5-[4-(1-methyl-1H-indazol-6-yl)phenyl]-4,6-diazaspiro[2.4]hept-4-en-7-one] | 76.4% | 1.86 µM |  |
| CC(O)C(=O)N1CC[C@@H](CN2C(=O)C3(CCOC3)N=C2c2ccc(-c3ccc(-c4cnn(C)c4)cc3)cc2)C1 (stereo partly drawn) [compound 677, 3-{[(3R)-1-(2-Hydroxypropanoyl)pyrrolidin-3-yl]methyl}-2-[4′-(1-methyl-1H-pyrazol-4-yl)biphenyl-4-yl]-7-oxa-1,3-diazaspiro[4.4]non-1-en-4-one] | 63% | ~7.08 µM |  |
| Cn1nccc1-c1ccc(-c2ccc(C3=NC4(CC4)C(=O)N3CC3CN(C(=O)C4CC4)C3)cc2)cc1 [compound 514, 6-{[1-(Cyclopropylcarbonyl)azetidin-3-yl]methyl}-5-[4′-(1-methyl-1H-pyrazol-5-yl)biphenyl-4-yl]-4,6-diazaspiro[2.4]hept-4-en-7-one] | 56% | 7.41 µM |  |
| CS(=O)(=O)Nc1cccc(-c2ccc(C3=NC4(CCCC4)C(=O)N3C[C@@H]3CCN(C(=O)C4CC4)C3)cc2)c1 [compound 84, N-[4′-(3-{(3R)-1-(Cyclopropylcarbonyl)pyrrolidin-3-yl]methyl}-4-oxo-1,3-diazaspiro[4.4non-1-en-2-yl)biphenyl-3-yl]methanesulfonamide] | 89.2% | 1 µM |  |
| O=C(c1nccs1)N1CC(CN2C(=O)C3(CCOCC3)N=C2c2ccc(-c3ccc4occc4c3)cc2)C1 [compound 949, 2-(4-(benzofuran-5-yl)phenyl)-3-((1-(thiazole-2-carbonyl)azetidin-3-yl)methyl)-8-oxa-1,3-diazaspiro[4.5]dec-1-en-4-one] | -4% | > 10 µM |  |
| O=C(C1CC1)N1CC(CN2C(=O)C3(CC3)N=C2c2ccc(-c3ccc(-n4ccnc4)nc3)cc2)C1 [compound 509, 6-{[1-(Cyclopropylcarbonyl)azetidin-3-yl]methyl}-5-{4-[6-(1H-imidazol-1-yl)pyridin-3-yl]phenyl}-4,6-diazaspiro[2.4]hept-4-en-7-one] | 69% | 2 µM |  |
| CN(C)c1cccc(-c2ccc(C3=NC4(CC4)C(=O)N3C[C@@H]3CCN(C(=O)C4CC4)C3)cc2)c1 [compound 145, 6-{[(3R)-1-(Cyclopropylcarbonyl)pyrrolidin-3-yl]methyl}-5-[3′-(dimethylamino)biphenyl-4-yl]-4,6-diazaspiro[2.4]hept-4-en-7-one] | 106% | 0.398 µM |  |
| Cn1ncc2cc(-c3ccc(C4=NC5(CCOC5)C(=O)N4CC4CN(S(C)(=O)=O)C4)cc3)ccc21 (stereo not drawn) [compound 944, 2-(4-(1-methyl-1H-indazol-5-yl)phenyl)-3-((1-(methylsulfonyl)azetidin-3-yl)methyl)-7-oxa-1,3-diazaspiro[4.4]non-1-en-4-one] | 5% | > 10 µM |  |
| O=C(C1CC1)N1CC[C@@H](CN2C(=O)C3(CCCC3)N=C2c2ccc(-c3cccnc3)cc2)C1 [compound 5, 3-{[(3R)-1-(Cyclopropylcarbonyl)pyrrolidin-3-yl]methyl}-2-(4-pyridin-3-ylphenyl)-1,3-diazaspiro[4.4]non-1-en-4-one] | 74.6% | 2.14 µM |  |
| CS(=O)(=O)N1CC[C@@H](CN2C(=O)C3(CCOCC3)N=C2c2ccc(-c3ccc4cccnc4c3)cc2)C1 [compound 960] | -2% | > 10 µM |  |
